Source: patent US20230330254A1 (Regeneron Pharmaceuticals, Inc., priority 2022, published 2023)
pEC50: −log10 of the molar value. Where “and” joins values, the source holds several entries; their conditions need not be identical. Equal values may be shown once. Read-outs that look alike come from different tables or passages of the source. *1 amine or outer side, *2 acyl side, *3 side chain or, on linkers, in order; H or OH if unused. Where a SMILES comes first, the peptide text is derived from it. Side-chain parts run from the residue outwards. [ ]: non-standard residue; d: D form. The star is where a group is joined. Bip(2'-Et-4'-O(CH2)4NH2) = CCc1cc(OCCCCN[*:3])ccc1-c1ccc(C[C@H](N[*:1])C(=O)[*:2])cc1; Bip(2'-Et,4'-O(CH2)4N3) = CCc1cc(OCCCCN=[N+]=[N-])ccc1-c1ccc(C[C@H](N)C(=O)O)cc1; Malonyl(2,2-Me2,histaminyl) = CC(C)(C(=O)NCCc1cnc[nH]1)C(=O)*; Nva(5-(3,5-Me2Ph)) = Cc1cc(C)cc(CCC[C@H](N)C(=O)O)c1; Ala(1H-tetrazol-5-yl) = N[C@@H](Cc1nnn[nH]1)C(=O)O; PEG8 = NCCOCCOCCOCCOCCOCCOCCOCCOCCC(=O)O; αMePhe(2-F) = C[C@](N)(Cc1ccccc1F)C(=O)O; DBCO = C1#Cc2ccccc2N(*)Cc2ccccc21; Suc = O=C(CCC(=O)[*:2])[*:1]

What was measured:
[1] = Water solubility of linker-payload; format: physicochemical
human GLP1R [2] = target: T1, human GLP1R (Homo sapiens, UniProt P43220); experiment: Luciferase reporter assay, HEK293/CRE-Luc/hGLP1R (Example 17); format: cell-based; set-up: engineered to express full-length human GLP1R, cynomolgus GLP1R; expressed in transfected cells; host or cells: HEK293/CRE-Luc; conditions: HEK293/CRE-Luc/hGLP1R
T1 sequence (P43220 24-463): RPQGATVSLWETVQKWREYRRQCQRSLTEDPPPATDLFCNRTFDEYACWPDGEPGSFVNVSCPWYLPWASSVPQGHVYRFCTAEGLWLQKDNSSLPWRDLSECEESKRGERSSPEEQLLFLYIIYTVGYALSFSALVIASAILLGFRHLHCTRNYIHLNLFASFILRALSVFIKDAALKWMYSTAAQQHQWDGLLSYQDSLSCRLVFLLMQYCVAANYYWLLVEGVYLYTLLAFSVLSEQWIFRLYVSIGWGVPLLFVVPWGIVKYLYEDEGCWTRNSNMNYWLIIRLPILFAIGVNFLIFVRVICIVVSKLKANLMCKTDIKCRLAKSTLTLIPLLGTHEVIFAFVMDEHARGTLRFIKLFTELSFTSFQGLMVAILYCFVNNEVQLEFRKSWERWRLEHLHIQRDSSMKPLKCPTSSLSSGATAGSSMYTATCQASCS
Summary of the method: (§1)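 HEK293 cells carrying a CRE-driven firefly luciferase reporter were exposed to 3-fold serial dilutions of payloads or linker-payloads (12 points, 0.2% DMSO final) for 4–6 h, then luminescence was read. EC50 came from a four-parameter logistic fit; S/N is top RLU over untreated wells, and relative potency and S/N are referenced to M2361.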

HEK293/CRE-Luc cells = experiment: Luciferase reporter assay, HEK293/CRE-Luc cells without GLP1R (Example 17); format: cell-based, human
Summary of the method: as §1

human GLP1R [3] = target: T1, human GLP1R; experiment: b-arrestin 2 recruitment assay, PathHunter CHO/b-arrestin 2/hGLP1R cells; format: cell-based; conditions: read-out: CHO/b-arrestin 2/hGLP1R Emax (% GLP-1)
Description: The b-arrestin 2 recruitment assay was performed following manufacter's instructions (Eurofins DiscoverX, #93-0300E2CP0M), with minor modifications. […] Serial dilutions of free payload and LP were performed in 100% DMSO, followed by 1:100 dilution in assay media. Test articles were added to cells (1:5 dilution) with the last well in each serial dilution series serving as a blank control containing only assay media for antibodies and ATLs or assay media with 0.2% DMSO for payload and LP. After a 90-minute incubation at 37° C., PathHunter Detection Reagent (Eurofins DiscoverX, #93-0300E2CP0M) was added to the wells followed by a 1-hour incubation at room temperature. RLUs were measured on EnVision Plate Reader (Perkin Elmer).
(§2) EC50 values for luminescence assays were determined using a four-parameter logistic equation over a 12-point dose response curve (GraphPad Prism).

human GLP1R [4] = target: T1, human GLP1R; experiment: CRE-Luc cAMP reporter assay, HEK293/CRE-Luc/hGLP1R (Example 24); format: cell-based; set-up: engineered to express full-length human GLP1R, cynomolgus GLP1R; expressed in transfected cells; host or cells: HEK293/CRE-Luc; conditions: HEK293, read-out: HEK293/CRE-Luc/hGLP1R Emax (% GLP-1)
Text: To test the activity of GLP1R agonist payloads, GLP1R agonist linker-payloads (LPs), and anti-GLP1R antibody-tethered ligands (ATLs) of the invention, a cell-based cAMP responsive luciferase reporter assay was developed. To generate the assay cell line, the firefly luciferase gene was placed under the control of a cAMP response element (CRE) located upstream of a minimal promoter and transfected into HEK293 cells and referred to herein as HEK293/CRE-Luc cells. HEK293/CRE-Luc cells were then engineered to express full-length human GLP1R (HEK293/CRE-Luc/hGLP1R), cynomolgus GLP1R (HEK293/CRE-Luc/mfGLP1R), or mouse GLP1R (HEK293/CRE-Luc/mGLP1R).
Serial dilutions of free payload and linker payloads (LP) were performed in 100% DMSO (ATCC, #4-X-5), followed by 1:100 dilution in assay media. Test articles were added to cells (1:5 dilution) with the last well in each serial dilution series serving as a blank control containing only assay media for antibodies and ATLs or assay media with 0.2% DMSO for payloads and LPs. After a 5-hour incubation at 37° C., luciferase activity was determined by addition of ONE-Glo reagent (Promega, #E6130) followed by measurement of relative light units (RLUs) on an EnVision Plate Reader (Perkin Elmer).
as §2

[5] = relative to M2361 of the same experiment
[6] = ATDCs and references (Table 27)

| SMILES | solubility [1] | S/N (human GLP1R [2]; highest RLU / RLU of untreated wells) | pEC50 (human GLP1R [2]; payloads and linker-payloads, experiments A-E, M2361 repeated in each, read-out: EC50) | Relative Potency (% M2361 EC50) (human GLP1R [2]; [5]) | Relative Signal:Noise (% M2361) (human GLP1R [2]; [5]) | S/N (HEK293/CRE-Luc cells; HEK293/CRE-Luc cells without hGLP1R, ATDCs and references (Table 27)) | pEC50 (HEK293/CRE-Luc cells; HEK293/CRE-Luc cells without hGLP1R, ATDCs and references (Table 27), read-out: EC50) | S/N (HEK293/CRE-Luc cells; HEK293/CRE-Luc cells without hGLP1R, payloads and linker-payloads) | pEC50 (HEK293/CRE-Luc cells; Table 28, reporter cells without GLP1R, read-out: HEK293/CRE-Luc EC50) | pEC50 (HEK293/CRE-Luc cells; Table 29, reporter cells without GLP1R, read-out: HEK293/CRE-Luc EC50) | Emax (human GLP1R [3]) | Relative Potency (% M2361 EC50) (human GLP1R [2]; [6]) | Relative Signal:Noise (% M2361) (human GLP1R [2]; [6]) | S/N (human GLP1R [2]; [6]) | Emax (human GLP1R [4]) |
| --- | --- | --- | --- | --- | --- | --- | --- | --- | --- | --- | --- | --- | --- | --- | --- |
| CCc1cc(OCCCCNC(=O)CCOCCOCCOCCOCCOCCOCCOCCOCCNC(=O)CCC(=O)N2Cc3ccccc3C#Cc3ccccc32)ccc1-c1ccc(C[C@H](NC(=O)[C@H](CC(=O)O)NC(=O)[C@H](CO)NC(=O)[C@@H](NC(=O)[C@](C)(Cc2ccccc2F)NC(=O)[C@@H](NC(=O)CNC(=O)[C@H](Cc2nn[nH]n2)NC(=O)C(C)(C)C(=O)NCCc2cnc[nH]2)[C@@H](C)O)[C@@H](C)O)C(=O)N[C@@H](CCCc2cc(C)cc(C)c2)C(N)=O)cc1 [LP2, DIBAC-suc-PEG8-P9] ({Malonyl(2,2-Me2,histaminyl)}-[Ala(1H-tetrazol-5-yl)]GT[αMePhe(2-F)]TSD[Bip(2'-Et-4'-O(CH2)4NH2)]([PEG8-Suc-DBCO])[Nva(5-(3,5-Me2Ph))]-NH2) | ≥ 0.06 µM | 323.1 | 10.13 | 36.8% | 137.0% | – | – | – | – | – | – | – | – | – | – |
| CCc1cc(OCCCCN=[N+]=[N-])ccc1-c1ccc(C[C@H](NC(=O)[C@H](CC(=O)O)NC(=O)[C@H](CO)NC(=O)[C@@H](NC(=O)[C@](C)(Cc2ccccc2F)NC(=O)[C@@H](NC(=O)CNC(=O)[C@H](Cc2nn[nH]n2)NC(=O)C(C)(C)C(=O)NCCc2cnc[nH]2)[C@@H](C)O)[C@@H](C)O)C(=O)N[C@@H](CCCc2cc(C)cc(C)c2)C(N)=O)cc1 [M2361] ({Malonyl(2,2-Me2,histaminyl)}-[Ala(1H-tetrazol-5-yl)]GT[αMePhe(2-F)]TSD[Bip(2'-Et,4'-O(CH2)4N3)][Nva(5-(3,5-Me2Ph))]-NH2) | – | – | – | 100.0% | 100.0% | 1.3 | < 7.70 | 1.5 and 1.3 | < 6.70 | < 7.52 | 107% | 100.0% | 100.0% | 64.3 | 95.8% |
